Where a SMILES comes first, the peptide text is derived from it. [ ]: non-standard residue; d: D form.
Tests used:
[1] = target: n-terminally biotinylated Aβ42 monomers; conditions: read-out: KD for D3 and Aβ42 by SPR; n-terminally biotinylated Aβ42 monomers fixed on sensor chips via biotin-streptavidin; cited from earlier work
[2] = target: T1, Aβ42 (Homo sapiens, UniProt P05067); assay: Seeding experiment, ThT kinetics of seeded Aβ42; type: biochemical; conditions: 20 mM sodium phosphate, 50 mM NaCl pH 7.4, 20 °C
T1 construct: purchased Bachem H-1368.1000
T1 sequence (P05067 672-713 limits assumed): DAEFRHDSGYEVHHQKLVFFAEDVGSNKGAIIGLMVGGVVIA
Method: The sample was then incubated quiescently at room temperature for 120 h. […] Samples were pipetted to a 96-well plate, with each well containing 200 μL samples. The plate was then covered with a sealing film. ThT fluorescence of all samples was recorded using the same device and parameters, as described above for ThT assays. All samples were prepared in duplicate. Final data was normalized and averaged based on the repetitions.

[3] = Sedimentation velocity AUC with fluorescence detection, labeled peptide alone; type: physicochemical; conditions: sedimentation velocity AUC-FDS of FITC-D3 alone, 0.2 μM, 20 mM sodium phosphate, 50 mM NaCl pH 7.4, 0.0004% PEI
Method: All measurements were performed using an XL-A analytical ultracentrifuge (Beckman coulter, Brea, CA, USA). […] All samples were prepared in 20 mM sodium phosphate, 50 mM NaCl (pH 7.4) containing 0.0004% PEI (w/v). Samples were then loaded into 3-mm double-sector titanium cells (Nanolytics, Potsdam, Germany), with each sector containing a 100 μL sample. The detection system uses an excitation laser at 488 nm and an emission cut-off filter at 505 nm to collect fluorescence signals. The amplification factor was adjusted to the same value for all samples for comparability. […] Data was acquired at 20 nm radial resolution. After thorough thermal equilibration the centrifugation was carried out at 60,000 rpm (289,000× g) at 20 °C for 15 h. Carrier proteins, such as albumin and kappa casein, are usually recommended to minimize unspecific surface adsorption for fluorescence-based AUC [56]. All sedimentation profiles were subjected to the software package SEDFIT (version 15.01b) for data evaluation. The data was analyzed with the continuous distribution c(s) Lamm equation model to obtain the sedimentation coefficient distributions. Fitting parameters (Table S1) including the buffer density and viscosity were determined using Sednterp (version 20130813BETA). […]

[4] = target: T1, Aβ42; assay: Circular dichroism spectroscopy, secondary structure transition of Aβ42; type: biochemical; conditions: 20 mM sodium phosphate, 50 mM NaF pH 7.4, 20 °C
Method: NaF was used to substitute NaCl in this measurement to maintain the ionic strength of the buffer, so as to avoid the strong absorbance of NaCl in the far-UV area. […] All samples were prepared on ice before being transferred to 1 mm path length quartz cuvettes. The final volume of each sample was 200 μL. Circular dichroism (CD) spectra were recorded from 260 nm to 190 nm using a J-815 spectropolarimeter (Jasco, Tokyo, Japan). All measurements were carried out with a step size of 0.5 nm and a bandwidth of 2 nm. The scanning speed was set to 100 nm/min and 10 scans were accumulated for each sample. […] Samples were maintained at 20 °C within the measurement duration of 120 h, and were prepared in triplicate. CD spectra for all samples were deconvoluted using the online server Dichroweb by applying the CDSSTR algorithm and reference dataset Set 7 [87].

[5] = target: T1, Aβ42; assay: Turbidity assay of Aβ42 samples with D3; type: physicochemical; conditions: 40 μM Aβ42 with 4, 20, 40 and 80 μM D3; 20 mM sodium phosphate, 50 mM NaCl pH 7.4; ambient temperature; directly and after 2 h; UV-Vis
Method: The turbidity assay was carried out by measuring the spectra of all samples from 450 nm to 210 nm in a 1 cm quartz cuvette using a V-650 UV-Vis spectrophotometer (Jasco, Tokyo, Japan). The measurements were performed directly after preparing all samples, and repeated after 2 h of incubation at ambient temperature.

[6] = target: T1, Aβ42; assay: Sedimentation velocity AUC with fluorescence detection, Aβ42 and D3 mixtures; type: binding; conditions: 0.33 μM FITC-Aβ42 with various D3 concentrations; 55 mM Tris-HCl, 50 mM NaCl pH 7.4, 0.01% Tw20; D3 concentration-dependent
Method: All measurements were performed using an XL-A analytical ultracentrifuge (Beckman coulter, Brea, CA, USA). […] All samples were prepared in 20 mM sodium phosphate, 50 mM NaCl (pH 7.4) containing 0.0004% PEI (w/v). Samples were then loaded into 3-mm double-sector titanium cells (Nanolytics, Potsdam, Germany), with each sector containing a 100 μL sample. The detection system uses an excitation laser at 488 nm and an emission cut-off filter at 505 nm to collect fluorescence signals. The amplification factor was adjusted to the same value for all samples for comparability. […] Data was acquired at 20 nm radial resolution. After thorough thermal equilibration the centrifugation was carried out at 60,000 rpm (289,000× g) at 20 °C for 15 h. Carrier proteins, such as albumin and kappa casein, are usually recommended to minimize unspecific surface adsorption for fluorescence-based AUC [56]. All sedimentation profiles were subjected to the software package SEDFIT (version 15.01b) for data evaluation. The data was analyzed with the continuous distribution c(s) Lamm equation model to obtain the sedimentation coefficient distributions. Fitting parameters (Table S1) including the buffer density and viscosity were determined using Sednterp (version 20130813BETA). […] Final graphs were generated using GUSSI (version 1.2.1) and sedimentation coefficients were standardized to s-values in pure water at 20 °C (s20,w).

[7] = target: T1, Aβ42; assay: ThT assay, fibrillation kinetics of Aβ42; type: biochemical; conditions: 50 mM NaCl pH 7.4, 20 °C, AmyloFit fit, triplicate
Method: ThT was added at a final concentration of 5 μM in all samples. The final volume of each sample was 200 μL. Samples were prepared on ice and were pipetted into a 96-well plate afterwards. The plate was sealed with a microplate sealing film. All measurements were conducted at 20 °C with a microplate reader (Infinite M200, Tecan, Männedorf, Switzerland). The fluorescence was recorded at an excitation wavelength (λex) of 445 nm and an emission wavelength (λem) of 485 nm every 30 min for 120 h. […] All samples were prepared in triplicate.
The ThT data was then subjected to the online server AmyloFit with a customized sigmoidal Equation (1) to determine the lag time tlag , and the half completion time of the aggregation process t1/2 , according to previous studies. (1) It=k0t+A/1+exp−kt−t1/2, where k0 represents the slope of the baseline, A is the amplitude, k denotes the apparent elongation rate constant. The lag time tlag can be derived from the intercept between the time axis and the tangent with slope k from the midpoint of the fitted sigmoidal curve, which is given by the following Equation (2):(2) tlag=t1/2−2/k

[8] = 20 μM Aβ42 with (label D3) or without (label Aβ42) 2 μM D3, 20 mM sodium phosphate, 5 μM ThT
[9] = 20 μM Aβ42 with (label D3, 10:1) or without (label Aβ42) 2 μM D3, 55 mM Tris-HCl

CC(C)C[C@@H](NC(=O)[C@@H](CCCNC(=N)N)NC(=O)[C@H](NC(=O)[C@@H](CCCNC(=N)N)NC(=O)[C@H]1CCCN1C(=O)[C@H](N)CCCNC(=N)N)[C@H](C)O)C(=O)N[C@H](Cc1c[nH]cn1)C(=O)N[C@@H](C(=O)N[C@H](Cc1c[nH]cn1)C(=O)N[C@H](CCCNC(=N)N)C(=O)N[C@H](CC(N)=O)C(=O)N[C@H](CCCNC(=N)N)C(N)=O)[C@H](C)O [D3] (H-[dR][dP][dR][dT][dR][dL][dH][dT][dH][dR][dN][dR]-NH2)
Kd [1]: ~4 µM | MST KD compared with SPR KD: 10 fold | Effect on ThT kinetics of Aβ42 with 1% seeds ([2]; 10 μM Aβ42, 1% seeds, 1 μM D3, compared with Aβ42 without D3): longer lag phase | Effect on ThT kinetics of Aβ42 with 5% seeds ([2]; 10 μM Aβ42, 5% seeds, 1 μM D3 (0.1-fold), slopes compared with Aβ42 with 5% seeds only): retardation of the elongation process | Self-assembly or aggregation of D3 in solution [3]: does not form any self-assemblies or aggregates | Effect of delayed D3 addition on the structural transformation of Aβ42 ([4]; 4 μM D3 added into 40 μM Aβ42 after 33 h preincubation): visibly delayed the structural transformation of Aβ42 | Ellipticity at 217 nm of the Aβ42 sample with D3 relative to Aβ42 alone ([4]; 40 μM Aβ42 with 4 μM D3, at 120 h, triplicate): about 72% | Turbidity (absorbance at 405 nm) of Aβ42 samples on addition of D3 [5]: promotes the rapid formation of co-precipitates in a concentration-dependent manner | s20,w of new species formed on incubating D3 with FITC-Aβ42 [6]: 1.54 ± 0.11 S | Half completion time t1/2 of fibrillation kinetics [7, 8]: 79.3 ± 2.3 h | Lag time tlag of fibrillation kinetics [7, 8]: 67.6 ± 3.8 h | Slope k of fibrillation kinetics [7, 8]: 0.18 ± 0.07 | Half completion time t1/2 of fibrillation kinetics, Tris-HCl buffer [7, 9]: 74.5 ± 2.8 h | Lag time tlag of fibrillation kinetics, Tris-HCl buffer [7, 9]: 59.3 ± 2.2 h | Slope k of fibrillation kinetics, Tris-HCl buffer [7, 9]: 0.14 ± 0.04

Reference: publication PMC6600523, “Interference with Amyloid-β Nucleation by Transient Ligand Interaction” (Molecules, 2019)
